According to US11352322B2, “Cyclopropyl-amide compounds as dual LSD1/HDAC inhibitors” (Jubilant Epicore LLC, priority 2016, dated 2022):
Structures can show the parent of a compound that is named as a salt. Where two headings read alike, the source gives them in different places.

Legend:
[1] = Metabolic stability in liver microsomes, HLM; conditions: 1 μM, NADPH
Procedure: (§1) The microsomal suspension was prepared by adding liver microsomes to 100 mM potassium phosphate buffer (pH7.4) to give a final protein concentration of 0.5 mg/mL. The stock solution of NCE (10 mM in DMSO) was added to the microsomes to provide a final concentration of 1 μM. […] Samples were vortexed and centrifuged at 5,000 rpm for 10 min to remove proteins. Supernatant were analyzed on LC-MS/MS.

[2] = Metabolic stability in liver microsomes, MLM; conditions: 1 μM, NADPH
Procedure: as §1

MM1S = test: Anticancer activity: Alamar Blue assay, MM1S; assay type: cell-based; conditions: Homo sapiens, MM1.S, read-out: MM1S EC50

Row | Compound | Metabolic stability HLM % remaining in 30 min [1] [%] | Metabolic stability MLM % remaining in 30 min [2] [%] | EC50 (MM1S) [nM] | EC50 (MM1S; MM1S cells) [nM]
1 | O=C(/C=C/c1ccc(CNC2CC2c2ccc(C3CC3)cc2)cc1)NO (stereo not drawn) [Example 1, (E)-3(4(((2(4cyclopropylphenyl)cyclopropl)amino)methyl)phenyl)-N-hydroxyacrylamide] | 21 | 5 |  | 
2 | O=C(/C=C/c1ccc(CNC2CC2c2ccc(F)cc2)cc1)NO (stereo not drawn) [Example 2, (E)-3-(4-{[2-(4-Fluoro-phenyl)-cyclopropylamino]-methyl}-phenyl)-N-hydroxy-acrylamide TFA Salt] | 41 | 19 |  | 
3 | O=C(/C=C/c1ccc(CNC2CC2c2ccc(OCc3ccc(F)cc3)cc2)cc1)NO (stereo not drawn) [Example 3, (E)-3-(4-(((2-(4-((4-fluorobenzyl)oxy)phenyl)cyclopropyl)amino)methyl)phenyl)-N-hydroxyacrylamide TFA Salt] | 65 | < 5 | 104 | 
4 | Cc1noc(C)c1-c1ccc(C2CC2NCc2ccc(/C=C/C(=O)NO)cc2)cc1 (stereo not drawn) [Example 6, (E)-3-(4-(((2-(4-(3,5-dimethylisoxazol-4-yl)phenyl)cyclopropyl)amino)methyl)phenyl)-N-hydroxyacrylamide TFA Salt] | 44 | < 5 | 34 | 
5 | O=C(NO)c1cnc(N2CCC(NC3CC3c3ccccc3)CC2)nc1 (stereo not drawn) [Example 9, 2-[4-(2-Phenyl-cyclopropylamino)-piperidin-1-yl]-pyrimidine-5-carboxylic Acid Hydroxyamide TFA Salt] | 65 | 50 | 4 | 
6 | O=C(NO)c1cnc(N2CCC(NC3CC3c3ccc(F)cc3)CC2)nc1 (stereo not drawn) [Example 10, 2-{4-[2-(4-Fluoro-phenyl)-cyclopropylamino]-piperidin-1-yl}-pyrimidine-5-carboxylic acid hydroxyamide TFA salt] | 81 | 55 | 9 | 
7 | O=C(NO)c1cnc(N2CCC(CNC3CC3c3ccc(OCc4ccc(F)cc4)cc3)CC2)nc1 (stereo not drawn) [Example 11, 2-(4-(((2-(4-((4-fluorobenzyl)oxy)phenyl)cyclopropyl)amino)methyl)piperidin-1-yl)-N-hydroxypyrimidine-5-carboxamide TFA Salt] | 44 | 14 | 18 | 
8 | O=C(NO)c1cnc(N2CCC(NC3CC3c3ccc(-c4ccc(Cl)cc4)cc3)CC2)nc1 (stereo not drawn) [Example 13, 2-(4-((2-(4′-chloro-[1,1′-biphenyl]-4-yl)cyclopropyl)amino)piperidin-1-yl)-N-hydroxypyrimidine-5-carboxamide TFA Salt] | 57 | 23 | 24 | 
9 | O=C(NO)c1cnc(N2CCC(CNC3CC3c3ccc(-c4ccc(Cl)cc4)cc3)CC2)nc1 (stereo not drawn) [Example 14, 2-(4-(((2-(4′-chloro-[1,1′-biphenyl]-4-yl)cyclopropyl)amino)methyl)piperidin-1-yl)-N-hydroxypyrimidine-5-carboxamide TFA Salt] | 88 | 82 | 8 | 
10 | Cc1noc(C)c1-c1ccc(C2CC2NCC2CCN(c3ncc(C(=O)NO)cn3)CC2)cc1 (stereo not drawn) [Example 16, 2-(4-(((2-(4-(3,5-dimethylisoxazol-4-yl)phenyl)cyclopropyl)amino)methyl)piperidin-1-yl)-N-hydroxypyrimidine-5-carboxamide TFA Salt] | 47 | 25 | 17 | 
11 | O=C(NO)c1cnc(N2CCC(CNC3CC3c3ccc(-c4cncnc4)cc3)CC2)nc1 (stereo not drawn) [Example 17, N-hydroxy-2-(4-(((2-(4-(pyrimidin-5-yl)phenyl)cyclopropyl)amino)methyl)piperidin-1-yl)pyrimidine-5-carboxamide TFA Salt] | 69 | 57 | 17 | 
12 | COc1ccc(C2CC2NCC2CCN(c3ncc(C(=O)NO)cn3)CC2)cc1 (stereo not drawn) [Example 18, N-hydroxy-2-(4-(((2-(4-methoxyphenyl)cyclopropyl)amino)methyl)piperidin-1-yl)pyrimidine-5-carboxamide TFA Salt] | 41 | 28 | 3 | 
13 | COc1ccc(C2CC2NC2CCN(c3ncc(C(=O)NO)cn3)CC2)cc1 (stereo not drawn) [Example 19, N-hydroxy-2-(4-((2-(4-methoxyphenyl)cyclopropyl)amino)piperidin-1-yl)pyrimidine-5-carboxamide TFA Salt] | 83 | 71 | 7 | 
14 | O=C(NO)c1cnc(N2CCn3cc(CNC4CC4c4ccccc4)nc3C2)nc1 (stereo not drawn) [Example 23, N-hydroxy-2-(2-(((2-phenylcyclopropyl)amino)methyl)-5,6-dihydroimidazo[1,2-a]pyrazin-7(8H)-yl)pyrimidine-5-carboxamide TFA Salt] | 95 | 85 | 11 | 
15 | COc1ccc(C2CC2NCc2cn3c(n2)CN(c2ncc(C(=O)NO)cn2)CC3)cc1 (stereo not drawn) [Example 24, N-hydroxy-2-(2-(((2-(4-methoxyphenyl)cyclopropyl)amino)methyl)-5,6-dihydroimidazo[1,2-a]pyrazin-7(8H)-yl)pyrimidine-5-carboxamide TFA Salt] | 71 | 74 | 9 | 
16 | O=C(NO)c1cnc(N2CCn3cc(CNC4CC4c4ccc(F)cc4)nc3C2)nc1 (stereo not drawn) [Example 25, 2-(2-(((2-(4-fluorophenyl)cyclopropyl)amino)methyl)-5,6-dihydroimidazo[1,2-a]pyrazin-7(8H)-yl)-N-hydroxypyrimidine-5-carboxamide TFA Salt] | 75 | 85 | 11 | 
17 | O=C(NO)c1cccc(CNC2CC2c2ccc(Br)cc2)c1 (stereo not drawn) [Example 26, 3-(((2-(4-bromophenyl)cyclopropyl)amino)methyl)-N-hydroxybenzamide TFA Salt] | 30 | 13 |  | 
18 | O=C(CCCCCNC1CC1c1ccccc1)NO (stereo not drawn) [Example 29, N-hydroxy-6-((2-phenylcyclopropyl)amino)hexanamide TFA Salt] | > 95 | 90 |  | 
19 | O=C(NO)c1ccc(CCCNC2CC2c2ccc(F)cc2)cc1 (stereo not drawn) [Example 30, 4-(3-((2-(4-fluorophenyl)cyclopropyl)amino)propyl)-N-hydroxybenzamide TFA Salt] | 16 | 51 | 45 | 
20 | O=C(CCCCCCNC(=O)c1ccc(CNC2CC2c2ccccc2)cc1)NO (stereo not drawn) [Example 31, N-(6-Hydroxycarbamoyl-hexyl)-4-[(2-phenyl-cyclopropylamino)-methyl]-benzamide TFA Salt] | 39 | 18 |  | 
21 | O=C(CCCCCCNC(=O)c1ccc(CNC2CC2c2ccc(F)cc2)cc1)NO (stereo not drawn) [Example 32, 4-(((2-(4-fluorophenyl)cyclopropyl)amino)methyl)-N-(7-(hydroxyamino)-7-oxoheptyl)benzamide TFA Salt] | 41 | 22 | 17 | 
22 | O=C(NO)c1ccc(CN2CCC(CNC3CC3c3ccccc3)CC2)cc1 (stereo not drawn) [Example 36, N-Hydroxy-4-{4-[(2-phenyl-cyclopropylamino)-methyl]-piperidin-1-ylmethyl}-benzamide TFA Salt] | 63 | 53 |  | 
23 | O=C(NO)c1ccc(CCCN2CCC(CNC3CC3c3cccc(F)c3)CC2)cc1 (stereo not drawn) [Example 49, 4-(3-(4-(((2-(3-fluorophenyl)cyclopropyl)amino)methyl)piperidin-1-yl)propyl)-N-hydroxybenzamide TFA Salt] | 48 | 34 | 62 | 
24 | Cc1noc(C)c1-c1ccc(C2CC2NCC2CN(CCCc3cccc(C(=O)NO)c3)C2)cc1 (stereo not drawn) [Example 65, 3-(3-(3-(((2-(4-(3,5-dimethylisoxazol-4-yl)phenyl)cyclopropyl)amino)methyl)azetidin-1-yl)propyl)-N-hydroxybenzamide TFA Salt] |  |  |  | 26
25 | O=C(NO)c1ccc(CCCN2CCc3cc(CNC4CC4c4ccc(F)cc4)ccc3C2)cc1 (stereo not drawn) [Example 78, 4-(3-(6-(((2-(4-fluorophenyl)cyclopropyl)amino)methyl)-3,4-dihydroisoquinolin-2(1H)-yl)propyl)-N-hydroxybenzamide TFA Salt] | 72 | 32 |  | 
26 | Nc1ccccc1NC(=O)/C=C/c1ccc(CNC2CC2c2ccc(F)cc2)cc1 (stereo not drawn) [Example 120] | 27 | 16 |  | 
27 | Nc1ccccc1NC(=O)c1ccc(CCCN2CCC(CNC3CC3c3ccc(C(=O)N4CCCCC4)cc3)CC2)cc1 (stereo not drawn) [Example 125, N-(2-aminophenyl)-4-(3-(4-(((2-(4-(piperidine-1-carbonyl)phenyl)cyclopropyl)amino)methyl)piperidin-1-yl)propyl)benzamide TFA Salt] | 34 | 49 |  | 
28 | Nc1ccccc1NC(=O)c1ccc(CCCN2CC(CNC3CC3c3ccc(F)cc3)C2)cc1 (stereo not drawn) [Example 126, N-(2-aminophenyl)-4-(3-(3-(((2-(4-fluorophenyl)cyclopropyl)amino)methyl)azetidin-1-yl)propyl)benzamide TFA Salt] | 79 | 76 |  | 
